The test system of this assay is T cells specific for the TERT572 peptide. Kind of assay: Immunomonitoring: IFNg ELISpot assay on PBMC of vaccinated patients. It is filed as in vivo, human.

No end group written: not given here.

Regarding “Vx-001: vaccine composed of two nine-amino-acid peptides, TERT572 (SEQ ID No: 1) and TERT572Y (SEQ ID No: 2), administered separately with adjuvant Montanide ISA51 VG (chain 1 RLFFYRKSV; chain 2 YLFFYRKSV; not fully specified)”, the “Patients who mounted a TERT572 specific immune response” value reads like this: (Vx-001 treated patients measured at least at W6, W18 or thereafter (22 of 75 patients)) 29.3%; (Vx-001 treated patients with non-squamous (NSQ) NSCLC) 36%; (Vx-001 treated patients with squamous (SQ) NSCLC) 13.3%. In addition, the “Frequency of vaccine-induced immune response” value by setting is: (Vx-001 treated patients with natural immunity) 15%; (Vx-001 treated patients without natural immunity) 36.2%.

The values are drawn from patent US20200079819A1, “Use of a Vaccine Targeting a Cryptic Tert Epitope, for Treating Lung Cancer in a HLA-A*0201-Positive Never-Smoker or Light-Former Smoker Patient” (Vaxon Biotech, priority 2017, published 2020).
